Converted amounts (≈) assume the structure as drawn.
Assays:
Experiment in all cases: ≥ marks a high value that may be exact or a test limit, other limits are often not marked, values filed in µg/mL are converted to µM
[1] = system: Pseudomonas aeruginosa ATCC 9027
[2] = system: Staphylococcus aureus ATCC 6538
[3] = system: Candida albicans ATCC 2002
[4] = system: Staphylococcus aureus ATCC 25923
[5] = system: Escherichia coli
[6] = system: Bacillus cereus
[7] = system: Escherichia coli ATCC 25922
[8] = system: Klebsiella pneumoniae ATCC 700603

Compound | MIC [1] [µM] | MIC [2] [µM] | MIC [5] [µM] | MIC [6] [µM] | other results
CC(C)C[C@H](NC(=O)[C@H](C)NC(=O)[C@H](CCCCN)NC(=O)[C@H](CCCCN)NC(=O)[C@H](CC(C)C)NC(=O)[C@H](C)NC(=O)[C@H](CCCCN)NC(=O)[C@H](Cc1ccccc1)NC(=O)[C@H](CC(C)C)NC(=O)[C@H](CC(C)C)NC(=O)[C@H](CCCCN)NC(=O)[C@H](C)NC(=O)[C@@H](N)Cc1ccccc1)C(N)=O [FAKLLFKALKKAL] | 134 (≈ 200 µg/mL) | 33.5 (≈ 50 µg/mL) | – | – | –
CC(C)C[C@H](NC(=O)[C@H](CCCCN)NC(=O)[C@H](CC(C)C)NC(=O)[C@H](CCCCN)NC(=O)[C@H](CC(C)C)NC(=O)[C@H](C)NC(=O)[C@H](CCCCN)NC(=O)[C@H](C)NC(=O)[C@H](CC(C)C)NC(=O)[C@H](CC(C)C)NC(=O)[C@H](CCCCN)NC(=O)[C@H](C)NC(=O)[C@@H](N)Cc1ccccc1)C(N)=O [FAKLLAKALKLKL] | 17.2 (≈ 25 µg/mL) | 6.86 (≈ 9.99 µg/mL) | – | – | –
CC(C)C[C@H](NC(=O)[C@H](C)NC(=O)[C@H](CC(C)C)NC(=O)[C@H](CCCCN)NC(=O)[C@H](C)NC(=O)[C@H](CC(C)C)NC(=O)[C@H](CCCCN)NC(=O)[C@H](CCCCN)NC(=O)[C@H](C)NC(=O)[C@H](CC(C)C)NC(=O)[C@H](CCCCN)NC(=O)[C@H](CCCCN)NC(=O)[C@H](C)NC(=O)[C@@H](N)Cc1ccccc1)C(N)=O [FAKKLAKKLAKLAL] | 64.8 (≈ 99.9 µg/mL) | 3.24 (≈ 5 µg/mL) | – | – | –
CC[C@H](C)[C@H](NC(=O)[C@H](C)NC(=O)[C@H](CCCN=C(N)N)NC(=O)[C@H](Cc1ccc(O)cc1)NC(=O)[C@H](CC(C)C)NC(=O)[C@H](CC(N)=O)NC(=O)[C@H](Cc1ccc(O)cc1)NC(=O)CNC(=O)[C@H](C)NC(=O)[C@@H](NC(=O)[C@@H](NC(=O)[C@@H](NC(=O)[C@H](CCCN=C(N)N)NC(=O)[C@@H](NC(=O)[C@@H](NC(=O)[C@@H](NC(=O)[C@@H]1CCCN1)C(C)C)C(C)C)[C@@H](C)CC)[C@@H](C)O)C(C)C)C(C)C)C(=O)N[C@@H](CCCCN)C(=O)N[C@@H](CCCCN)C(=O)N[C@@H](CCCCN)C(=O)O [PVVIRTVVAGYNLYRAIKKK] | – | – | – | – | MIC [3]: 16.4 µM (≈ 37.5 µg/mL); MIC [4]: 43.7 µM (≈ 100 µg/mL)
CC[C@H](C)[C@H](NC(=O)[C@H](CCSC)NC(=O)[C@H](CO)NC(=O)[C@@H](NC(=O)[C@H](CC(C)C)NC(=O)[C@H](CO)NC(=O)[C@@H]1CCCN1C(=O)[C@@H](NC(=O)[C@@H](NC(=O)[C@H](CCCCN)NC(=O)[C@H](CO)NC(=O)[C@H](C)NC(=O)[C@@H](NC(=O)[C@H](CCCN=C(N)N)NC(=O)CNC(=O)[C@@H](NC(=O)[C@H](Cc1ccccc1)NC(=O)[C@H](CO)NC(=O)[C@@H](N)CC(C)C)C(C)C)C(C)C)C(C)C)C(C)C)[C@@H](C)CC)C(=O)N[C@@H](CCCCN)C(=O)O [LSFVGRVASKVVPSLISMIK] | – | – | 120 (≈ 256 µg/mL) | ≥ 120 | –
CC(C)C[C@H](NC(=O)[C@H](CCCCN)NC(=O)[C@H](C)NC(=O)[C@H](CC(C)C)NC(=O)[C@H](CC(C)C)NC(=O)[C@H](CCCCN)NC(=O)[C@H](C)NC(=O)[C@@H](N)Cc1ccccc1)C(=O)N[C@@H](C)C(=O)N[C@@H](CCCCN)C(=O)N[C@@H](C)C(=O)N[C@@H](CCCCN)C(=O)N[C@@H](C)C(N)=O [FAKLLAKLAKAKA] | 146 (≈ 200 µg/mL) | 72.8 (≈ 99.9 µg/mL) | – | – | –
CC[C@H](C)[C@H](NC(=O)[C@@H]1CCCN1C(=O)[C@@H](NC(=O)[C@H](CO)NC(=O)[C@H](CO)NC(=O)[C@@H](N)CO)[C@@H](C)CC)C(=O)N[C@@H](CCCCN)C(=O)N[C@@H](CCSC)C(=O)N[C@H](C(=O)N[C@@H](CC(C)C)C(=O)N[C@H](C(=O)N[C@@H](CCCN=C(N)N)C(=O)N[C@@H](C)C(=O)N[C@@H](CC(C)C)C(=O)N[C@H](C(=O)N[C@@H](Cc1ccccc1)C(=O)N[C@H](C(=O)N[C@@H](CCCCN)C(=O)N[C@@H](CO)C(=O)NCC(=O)O)C(C)C)C(C)C)C(C)C)C(C)C [SSSIPIKMVLVRALVFVKSG] | – | – | > 120 | ≥ 120 | –
CC[C@H](C)[C@H](NC(=O)[C@@H](NC(=O)[C@@H]1CCCN1C(=O)[C@@H](NC(=O)[C@@H]1CCCN1C(=O)[C@H](CCCCN)NC(=O)[C@H](CCCCN)NC(=O)[C@H](CO)NC(=O)CN)C(C)C)[C@@H](C)CC)C(=O)N[C@@H](Cc1ccc(O)cc1)C(=O)N[C@H]1CSSC[C@@H](C(=O)N[C@@H](CCC(N)=O)C(=O)N[C@@H](CCCN=C(N)N)C(=O)N[C@@H](CCSC)C(=O)O)NC(=O)[C@H](CCCCN)NC(=O)CNC(=O)[C@H](CO)NC(=O)[C@H](CCCN=C(N)N)NC(=O)[C@H](CCCN=C(N)N)NC(=O)[C@H](CCC(N)=O)NC1=O [GSKKPVPIIYCQRRSGKCQRM] | – | – | – | – | MIC [7]: 13.1 µM (≈ 32 µg/mL); MIC [8]: 13.1 µM (≈ 32 µg/mL)
CC[C@H](C)[C@H](NC(=O)[C@H](CCC(=O)O)NC(=O)[C@H](CCC(=O)O)NC(=O)[C@H](CO)NC(=O)[C@H](CC(C)C)NC(=O)[C@H](CC(C)C)NC(=O)[C@H](Cc1c[nH]c2ccccc12)NC(=O)[C@H](CC(N)=O)NC(=O)[C@H](CCC(=O)O)NC(=O)CNC(=O)[C@H](CC(N)=O)NC(=O)[C@H](CCCCN)NC(=O)[C@H](CC(C)C)NC(=O)[C@H](CO)NC(=O)[C@H](Cc1ccc(O)cc1)NC(=O)[C@@H]1CCCN1)C(=O)N[C@H](C(=O)N[C@@H](CCCN=C(N)N)C(=O)N[C@@H](Cc1ccc(O)cc1)C(=O)N1CCC[C@H]1C(=O)O)[C@@H](C)CC [PYSLKNGENWLLSEEIIRYP] | – | – | > 106 | ≥ 106 | –
CC[C@H](C)[C@H](NC(=O)[C@@H](NC(=O)[C@@H](NC(=O)[C@H](CCCCN)NC(=O)[C@@H](N)Cc1ccccc1)C(C)C)C(C)C)C(=O)N[C@@H](CO)C(=O)N[C@@H](CCCCN)C(=O)N1CCC[C@H]1C(=O)NCC(=O)N[C@@H](CC(C)C)C(=O)N[C@@H](CO)C(=O)N[C@H](C(=O)N[C@@H](CCCN=C(N)N)C(=O)N[C@H](C(=O)NCC(=O)N[C@H](C(=O)N[C@@H](C)C(=O)N[C@@H](CC(C)C)C(=O)N[C@H](C(=O)N[C@H](C(=O)O)[C@@H](C)O)C(C)C)[C@@H](C)O)C(C)C)C(C)C [FKVVISKPGLSVRVGTALVT] | – | – | > 61.8 | ≥ 61.8 | –
CSCC[C@H](NC(=O)[C@H](CO)NC(=O)[C@H](Cc1ccccc1)NC(=O)[C@@H](NC(=O)[C@H](C)NC(=O)[C@@H]1CCCN1C(=O)[C@H](Cc1ccccc1)NC(=O)[C@@H](NC(=O)[C@H](CCCCN)NC(=O)[C@H](CO)NC(=O)[C@H](C)NC(=O)[C@H](CC(C)C)NC(=O)[C@H](CCCCN)NC(=O)CNC(=O)[C@@H](NC(=O)[C@H](C)NC(=O)[C@@H](N)CO)C(C)C)C(C)C)C(C)C)C(=O)N[C@H](C(=O)N[C@H](C(=O)N[C@@H](CCCCN)C(=O)O)[C@@H](C)O)C(C)C [SAVGKLASKVFPAVFSMVTK] | – | – | > 124 | ≥ 124 | –
CC(C)C[C@H](NC(=O)[C@H](C)NC(=O)[C@H](CCCCN)NC(=O)[C@H](C)NC(=O)[C@H](CC(C)C)NC(=O)[C@H](CCCCN)NC(=O)[C@H](CCCCN)NC(=O)[C@H](C)NC(=O)[C@H](CC(C)C)NC(=O)[C@H](CCCCN)NC(=O)[C@H](C)NC(=O)[C@H](CC(C)C)NC(=O)[C@H](CCCCN)NC(=O)[C@H](CCCCN)NC(=O)[C@H](C)NC(=O)[C@@H](N)Cc1ccccc1)C(N)=O [FAKKLAKLAKKLAKAL] | 115 (≈ 200 µg/mL) | > 115 | – | – | –
CC[C@H](C)[C@H](NC(=O)[C@@H]1CCCN1C(=O)[C@H](CO)NC(=O)[C@@H](NC(=O)[C@@H](NC(=O)[C@@H](NC(=O)[C@H](C)NC(=O)[C@H](CC(C)C)NC(=O)[C@H](CCCCN)NC(=O)[C@H](CO)NC(=O)[C@H](C)NC(=O)[C@@H](NC(=O)[C@H](CCCCN)NC(=O)[C@@H](NC(=O)[C@@H](NC(=O)[C@@H](N)CO)[C@@H](C)O)C(C)C)C(C)C)C(C)C)C(C)C)C(C)C)C(=O)N[C@@H](CO)C(=O)N[C@@H](CCCCN)C(=O)NCC(=O)N[C@@H](CO)C(=O)O [STVKVASKLAVVVSPISKGS] | – | – | > 131 | ≥ 131 | –
